Reference: patent US20250098679A1, “HERBICIDAL PYRIDONE DERIVATIVES” (SYNGENTA CROP PROTECTION AG, priority 2021, published 2025)

How the values were obtained:
Type in all cases: in vivo
Settings in all cases: evaluated after 13 days
[1] = tested on: Setaria faberi (SETFA); test: Pre-emergence Test, Setaria faberi (SETFA)
[2] = tested on: Echinochloa crus-galli (ECHCG); test: Pre-emergence Test, Echinochloa crus-galli (ECHCG)
[3] = tested on: Zea mays (ZEAMX); test: Pre-emergence Test, Zea mays (ZEAMX)
[4] = tested on: Ipomoea hederacea (IPOHE); test: Pre-emergence Test, Ipomoea hederacea (IPOHE)
[5] = tested on: Amaranthus palmeri (AMAPA); test: Pre-emergence Test, Amaranthus palmeri (AMAPA)
[6] = tested on: Amaranthus retoflexus (AMARE); test: Pre-emergence Test, Amaranthus retoflexus (AMARE)
[7] = tested on: Setaria faberi (SETFA); test: Post-emergence Test, Setaria faberi (SETFA); set-up: key to percentage damage caused to the plant, SETFA (five-point scale): 5=81-100%, 4=61-80%, 3=41-60%, 2=21-40%, 1=0-20% damage
In short: (§1)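 Application was a spray of acetone/water (50:50) with 0.5% Tween 20 onto pots of test species sown in standard soil. Unless otherwise stated, the rate was 1000 g/ha. After 13 days under glasshouse conditions (24/16 °C, 65% humidity), injury was scored from 1 (0-20%) to 5 (81-100%).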

[8] = tested on: Echinochloa crus-galli (ECHCG); test: Post-emergence Test, Echinochloa crus-galli (ECHCG); set-up: key to percentage damage caused to the plant, ECHCG (five-point scale): 5=81-100%, 4=61-80%, 3=41-60%, 2=21-40%, 1=0-20% damage
In short: as §1

[9] = tested on: Zea mays (ZEAMX); test: Post-emergence Test, Zea mays (ZEAMX); set-up: key to percentage damage caused to the plant, ZEAMX (five-point scale): 5=81-100%, 4=61-80%, 3=41-60%, 2=21-40%, 1=0-20% damage
In short: as §1

[10] = tested on: Ipomoea hederacea (IPOHE); test: Post-emergence Test, Ipomoea hederacea (IPOHE); set-up: key to percentage damage caused to the plant, IPOHE (five-point scale): 5=81-100%, 4=61-80%, 3=41-60%, 2=21-40%, 1=0-20% damage
In short: as §1

[11] = tested on: Amaranthus palmeri (AMAPA); test: Post-emergence Test, Amaranthus palmeri (AMAPA); set-up: key: 5=81-100%, 4=61-80%, 3=41-60%, 2=21-40%, 1=0-20% damage
In short: as §1

[12] = tested on: Amaranthus retoflexus (AMARE); test: Post-emergence Test, Amaranthus retoflexus (AMARE); set-up: key to percentage damage caused to the plant, AMARE (five-point scale): 5=81-100%, 4=61-80%, 3=41-60%, 2=21-40%, 1=0-20% damage
In short: as §1

| SMILES | Pre-emergence Test SETFA, percentage damage caused to the plant (five-point scale) ([1]; 1000 g/ha) | Pre-emergence Test ECHCG, percentage damage caused to the plant (five-point scale) ([2]; 1000 g/ha) | Pre-emergence Test ZEAMX, percentage damage caused to the plant (five-point scale) ([3]; 1000 g/ha) | Pre-emergence Test IPOHE, percentage damage caused to the plant (five-point scale) ([4]; 1000 g/ha) | Pre-emergence Test AMAPA, percentage damage caused to the plant (five-point scale) ([5]; 1000 g/ha) | Pre-emergence Test AMARE, percentage damage caused to the plant (five-point scale) ([6]; 1000 g/ha) | percentage damage caused to the plant, SETFA (five-point scale) ([7]; 250 g/Ha) | percentage damage caused to the plant, SETFA (five-point scale) ([7]; 1000 g/ha) | percentage damage caused to the plant, ECHCG (five-point scale) ([8]; 250 g/Ha) | percentage damage caused to the plant, ECHCG (five-point scale) ([8]; 1000 g/ha) | percentage damage caused to the plant, ZEAMX (five-point scale) ([9]; 250 g/Ha) | percentage damage caused to the plant, ZEAMX (five-point scale) ([9]; 1000 g/ha) | percentage damage caused to the plant, IPOHE (five-point scale) ([10]; 250 g/Ha) | percentage damage caused to the plant, IPOHE (five-point scale) ([10]; 1000 g/ha) | percentage damage caused to the plant, AMAPA (five-point scale) ([11]; 250 g/Ha) | percentage damage caused to the plant, AMAPA (five-point scale) ([11]; 1000 g/ha) | percentage damage caused to the plant, AMARE (five-point scale) ([12]; 250 g/Ha) | percentage damage caused to the plant, AMARE (five-point scale) ([12]; 1000 g/ha) | further results |
| --- | --- | --- | --- | --- | --- | --- | --- | --- | --- | --- | --- | --- | --- | --- | --- | --- | --- | --- | --- |
| CCn1c(Cn2cc(C(C)=O)c(C)n2)cc(=O)c(C(=O)O)c1-c1ccc(Cl)c(Cl)c1 [Compound 100, 6-[(4-acetyl-3-methyl-pyrazol-1-yl)methyl]-2-(3,4-dichlorophenyl)-1-ethyl-4-oxo-pyridine-3-carboxylic acid] | 1 (1=0-20%) | 0 | 0 | 2 (2=21-40%) | 2 (2=21-40%) | 2 (2=21-40%) | 0 | 2 (2=21-40%) | 3 (3=41-60%) | 2 (2=21-40%) | 0 | 1 (1=0-20%) | 0 | 3 (3=41-60%) | 0 | 2 (2=21-40%) | 0 | 2 (2=21-40%) |  |
| CCn1c(Cn2cc3c(n2)CCCC3)cc(=O)c(C(=O)O)c1-c1ccc(Cl)c(Cl)c1 [Compound 101, 2-(3,4-dichlorophenyl)-1-ethyl-4-oxo-6-(4,5,6,7-tetrahydroindazol-2-ylmethyl)pyridine-3-carboxylic acid] | 1 (1=0-20%) | 0 | 1 (1=0-20%) | 2 (2=21-40%) | 2 (2=21-40%) | 1 (1=0-20%) | 0 | 0 | 1 (1=0-20%) | 0 | 0 | 0 | 0 | 3 (3=41-60%) | 0 | 0 | 0 | 0 |  |
| CCn1c(Cn2ccc(Cl)n2)cc(=O)c(C(=O)O)c1-c1ccc(C#N)c(Cl)c1 [Compound 119, 2-(3-chloro-4-cyano-phenyl)-6-[(3-chloropyrazol-1-yl)methyl]-1-ethyl-4-oxo-pyridine-3-carboxylic acid] | 4 (4=61-80%) | 3 (3=41-60%) | 0 | 0 | 1 (1=0-20%) | 0 | 1 (1=0-20%) | 4 (4=61-80%) | 1 (1=0-20%) | 4 (4=61-80%) | 0 | 0 | 1 (1=0-20%) | 2 (2=21-40%) | 0 |  | 1 (1=0-20%) | 0 | Pre-emergence Test SETFA, percentage damage caused to the plant (five-point scale) ([1]; 250 g/Ha (*)): 3 (3=41-60%); Pre-emergence Test ECHCG, percentage damage caused to the plant (five-point scale) ([2]; 250 g/Ha (*)): 1 (1=0-20%); Pre-emergence Test ZEAMX, percentage damage caused to the plant (five-point scale) ([3]; 250 g/Ha (*)): 0; Pre-emergence Test IPOHE, percentage damage caused to the plant (five-point scale) ([4]; 250 g/Ha (*)): 0; Pre-emergence Test AMAPA, percentage damage caused to the plant (five-point scale) ([5]; 250 g/Ha (*)): 1 (1=0-20%); Pre-emergence Test AMARE, percentage damage caused to the plant (five-point scale) ([6]; 250 g/Ha (*)): 0 |
